Measured values as given in patent publication US20120028917A1, “Use Of N-(4-((3-(2-Amino-4-Pyrimidinyl)-2-Pyridinyl)Oxy)Phenyl)-4-(4-Methyl-2-Thienyl)-1-Phthalazinamine In The Treatment Of Antimitotic Agent Resistant Cancer” (Amgen Inc., priority 2009, published 2012).

Legend:
MES-SA = assay: p-Histone H3 assay (ArrayScan VTi); type: cell-based; details: Homo sapiens, 24 h, Uterine, Parent line
Procedure: (§1) MES-SA Dx5 and MES-SA cells were plated at a density of 10,000 cells/well onto 96-well plate in complete media and cultured for 24 hours. […] Cells were washed and fixed by adding 100 μL of 2× formaldehyde fixation buffer for 10 minutes and room temperature. […] Cells were immunostained with p-histone H3 antibody (5 μg/mL) and incubated at room temperature for 2 hours. Cells were washed in 100 μL of wash buffer. Next, cells were incubated with a goat anti-rabbit alexa-488 conjugated antibody (1.5 μg/mL) in wash buffer supplemented with Hoechest DNA dye (1 μg/mL) and incubated at room temperature in the dark for 30 minutes. Cells were washed twice with 100 μL of wash buffer. The 96-well plates were analyzed on an ArrayScan VTi (Cellomics) using a bioapplication algorithm (TargetActivation.V2). […] Cells were then fixed and stained with p-histone H3 antibody and counterstained with a DNA dye (Hoechest). Imaging-based analysis (ArrayScan VTi) was performed to measure the percentage of p-histone H3 positive cells. The dose-response curves represent either AMG 900 or taxol concentrations plotted against p-Histone H3 positive cells as a percentage of DMSO-treated control (POC). The EC50 values were calculated by 4-parameter fit model.

MES-SA Dx5 = assay: p-Histone H3 assay (ArrayScan VTi); type: cell-based; details: Homo sapiens, 24 h; MES-SA Dx5, Uterine, Doxorubicin-selected, P-gp overexpressing
Procedure: as §1

HCT116 parental = assay: ≧4N DNA content assay (FIG. 6-A); type: cell-based; details: Homo sapiens, HCT-116, 24 hours, read-out: cellular ≧4N DNA content EC50
Procedure: Tumor cells were treated with AMG 900, AZD1152, MK-0457, or PHA-739358 (range concentration varied based on potency) for 24 hours and processed for cell-cycle analysis (DNA staining only) as previously described (1). Cells were analyzed on a LSRII flow cytometer using BD FACS Diva software. The concentration-response curves and corresponding EC50 values were calculated using the percentage of cells with ≧4N DNA content versus the DMSO control.
HCT116 cell lines were treated with increasing concentrations of AMG 900 or AZD1152 for 24 hours. Flow cytometry was used to assess the accumulation of cells with ≧4N DNA content expressed as a percentage of the DMSO-treated control (POC). The concentration-response curves and calculated EC50 values were determined from two independent experiments (bars, ±SD).

Colo 205 xenograft = assay: Xenograft tumor growth inhibition (Example 3); type: in vivo, athymic nude mice; details: Colo 205, Colon; oral BID, best of intermittent or continuous dose schedule
Procedure: (§2) To investigate whether AMG 900-induced suppression of aurora kinase activity inhibits cell proliferation, the antiproliferative efficacy of AMG 900 was evaluated in-vivo in multiple human cancer xenograft models, including breast, colon, leukemia, lung, pancreatic, and uterine cancer models, grown in athymic nude mice. Mice were administered AMG 900 orally at 3.75, 7.5, or 15 mg/kg BID for 2 consecutive days per week or 3 mg/kg BID everyday for the duration of the study beginning when tumors were established. The reagents, solutions, equipment, formulation of AMG 900, tumor volume measurements and calculations were generally as described in Example 4 below.

NCI-H460 xenograft = assay: Xenograft tumor growth inhibition (Example 3); type: in vivo, athymic nude mice; details: NCI-H460, Lung; oral BID, best of intermittent or continuous dose schedule
Procedure: as §2

MiaPaCa2 xenograft = assay: Xenograft tumor growth inhibition (Example 3); type: in vivo, athymic nude mice; details: MiaPaCa2, Pancreas; oral BID, best of intermittent or continuous dose schedule
Procedure: as §2

MDA-MB-231 xenograft = assay: Xenograft tumor growth inhibition (Example 3); type: in vivo, athymic nude mice; details: MDA-MB-231, Breast; oral BID, best of intermittent or continuous dose schedule
Procedure: as §2

MES-SA xenograft = assay: Xenograft tumor growth inhibition (Example 3); type: in vivo, athymic nude mice; details: Uterine, oral BID, best of intermittent or continuous dose schedule
Procedure: as §2

HCT 116 xenograft = assay: Xenograft tumor growth inhibition (Example 3); type: in vivo, athymic nude mice; details: HCT 116, Colon; oral BID, best of intermittent or continuous dose schedule
Procedure: as §2

HL60 xenograft = assay: Xenograft tumor growth inhibition (Example 3); type: in vivo, athymic nude mice; details: HL60, Leukemia; oral BID, best of intermittent or continuous dose schedule
Procedure: as §2

NCI-H460-Taxol-r = assay: Cell cycle DNA content assay (flow cytometry); type: cell-based; details: Homo sapiens, 24 h, Lung, Paclitaxel-selected, read-out: EC50 @ 24 hours, ≧4N DNA content
Procedure: (§3) NCI-H460 parental and NCI-H460 taxol-resistant cells were seeded at a density of 500,000 cells/well in a 6-well plate in 2 mL of appropriate complete media. The next day cells were treated with AMG 900 or taxol over a 6-point concentration range with a final DMSO concentration of 0.05% in media. After 24 hours, cells were pulsed with BrdU (1:100 dilution) and harvested. Cells were centrifuged at 1600 rpm for 4 minutes and the supernatant was aspirated. Cells were washed in 1× PBS and fixed in 900 μL of ice cold 90% methanol and stored at −20° C. Fixed cells were centrifuged at 2000 rpm for 4 minutes to remove 90% methanol. Cells were washed with 200 μL of wash buffer and stained with 200 μL of propidium iodide (PI) overnight at 4° C. in the dark. Data was acquired and analyzed by flow cytomety (LSRII). A threshold gate was applied according to +4N (same as ≧4N) DNA content and SubG1 positive populations based on DMSO-treated control and low/high drug-treated groups. The data was represented as a percentage of +4N DNA and SubG1 positive subpopulations. The +4N (same as ≧4N) DNA content or SubG1 cellular EC50 values were calculated using a 4-parameter equation. Lung tumor cell lines were treated with control (DMSO), AMG 900 or taxol over a 6-point dose range for 24 hours. Flow cytometric-based cell cycle analysis was performed to measure the percentage of ≧4N DNA content or SubG1 DNA content positive cells. The dose-response curves for AMG 900 represent the drug concentration plotted against the percentage of ≧4N DNA content positive cells. The dose-response curves for taxol represent the drug concentration plotted against the percentage of SubG1 DNA content positive cells. The EC50 values were calculated by 4-parameter fit model.

NCI-H460 = assay: Cell cycle DNA content assay (flow cytometry); type: cell-based; details: Homo sapiens, 24 h; NCI-H460, Lung, Parent line; read-out: EC50 @ 24 hours, ≧4N DNA content
Procedure: as §3

- EC50 (MES-SA): < 2 nM
- EC50 (MES-SA Dx5): < 2 nM
- EC50 (NCI-H460-Taxol-r): 1 nM
- EC50 (NCI-H460): 1 nM
Compound: Cc1csc(-c2nnc(Nc3ccc(Oc4ncccc4-c4ccnc(N)n4)cc3)c3ccccc23)c1 [AMG 900, N-(4-((3-(2-amino-4-pyrimidinyl)-2-pyridinyl)oxy)phenyl)-4-(4-methyl-2-thienyl)-1-phthalazinamine]
- EC50 (HCT116 parental): 2 nM
- % TGI (tumor growth inhibition) (Colo 205 xenograft): 58%
- % TGI (tumor growth inhibition) (NCI-H460 xenograft): 85%
- % TGI (tumor growth inhibition) (MiaPaCa2 xenograft): 62%
- % TGI (tumor growth inhibition) (MDA-MB-231 xenograft): 82%
- % TGI (tumor growth inhibition) (MES-SA xenograft): 86%
- % TGI (tumor growth inhibition) (HCT 116 xenograft): 83%
- % TGI (tumor growth inhibition) (HL60 xenograft): 68%
